Experimental findings from patent US9382254B2, “Compounds and pharmaceutical compositions thereof for the treatment of cystic fibrosis” (Galapagos NV, priority 2013, dated 2016) are described below.

Format in all cases: cell-based
The target in one test is T1, CFTR-G178R (Homo sapiens, UniProt P13569, G178R).
T1 construct: expressed in transfected cells
The experiment in a line: YFP-halide influx assay for the CFTR-G178R. A digest of the protocol: (§1)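 HEK293 cells reverse-transfected with the CFTR mutant plus halide-sensitive YFP (H148Q/I152L/F47L), expressed 24 h at 37 °C. Channel activity measured as I⁻-induced fluorescence quenching over 7 s after injection, expressed as 1-F/F0; EC50 from 1-F/F0 versus compound concentration.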

A further test addresses T2, CFTR G551D mutant (Homo sapiens, UniProt P13569, G551D).
T2 construct: expressed in transfected cells; host or cells: HEK293 (reverse transfection with plasmid)
The experiment in a line: YFP-halide influx assay for the CFTR-G551D mutation. The note with it: HEK293 cells, forskolin 10.67 μM. A digest of the protocol: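 HEK293 cells reverse-transfected with CFTR G551D and YFP H148Q/I152L/F47L halide sensor, expressed 24 h at 37 °C. Iodide-induced fluorescence quench recorded 7 s after I− injection; response = 1−F/F0, with EC50 from plot against compound concentration.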

The target of test [1] is T3, CFTR ΔF508 mutant (Homo sapiens, UniProt P13569, DEL508-508).
T3 construct: expressed in transfected cells; host or cells: CFBE41o- (adenoviral transduction)
The experiment in a line: YFP-halide influx assay for the CFTR-ΔF508 mutation, PBS buffer (96 well). To be noted: CFBE41o- cells, forskolin 10.67 μM. An outline of the steps: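 CFBE41o- cells were adenovirally transduced with CFTR ΔF508 and YFP H148Q/I152L, then incubated 24 h at 27 °C or with a CFTR modulator at 37 °C. I⁻-induced fluorescence quenching was recorded over 7 s after injection; response expressed as 1−F/F0, with EC50 from concentration plots.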

Test [2] has as its target T3, CFTR ΔF508 mutant. The experiment in a line: YFP-halide influx assay for the CFTR-ΔF508 mutation, gluconate buffer. To be noted: CFBE41o- cells, forskolin 10.67 μM. An outline of the steps:
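CFBE41o- cells adenovirally transduced with CFTR ΔF508 and YFP H148Q/I152L, then held 24 h at 27 °C or treated with CFTR modulator 24 h at 37 °C. I− quenching recorded for 7 s after injection; activity as 1-F/F0, EC50 from concentration plot.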

The next test has as its target T4, CFTR-S549N (Homo sapiens, UniProt P13569, S549N).
T4 construct: expressed in transfected cells
The experiment in a line: YFP-halide influx assay for the CFTR-S549N. An outline of the steps: as §1

Another test deals with T5, CFTR-R117H (Homo sapiens, UniProt P13569, R117H).
T5 construct: expressed in transfected cells
The experiment in a line: YFP-halide influx assay for the CFTR-R117H. A digest of the protocol: as §1

In test [3] the target is T3, CFTR ΔF508 mutant. The experiment in a line: YFP-halide influx assay for the CFTR-ΔF508 mutation (384 well, FDSS/μCell). To be noted: CFBE41o- cells, CFTR-ΔF508, 1×D-PBS, fluorescence after 36 seconds. A digest of the protocol:
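Potentiator read-out as 1−F/F0, F taken 36 s after iodide addition, EC50 fitted against compound concentration. Cells: CFBE41o- expressing ΔF508 CFTR plus halide-sensitive YFP via adenovirus, rescued by 27 °C for 24 h or 24 h modulator at 37 °C.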

In the next test the target is T6, CFTR-G1349D (Homo sapiens, UniProt P13569, G1349D).
T6 construct: expressed in transfected cells
The experiment in a line: YFP-halide influx assay for the CFTR-G1349D. An outline of the steps: as §1

T3 sequence (P13569 with tags, fused parts or gaps DEL508-508): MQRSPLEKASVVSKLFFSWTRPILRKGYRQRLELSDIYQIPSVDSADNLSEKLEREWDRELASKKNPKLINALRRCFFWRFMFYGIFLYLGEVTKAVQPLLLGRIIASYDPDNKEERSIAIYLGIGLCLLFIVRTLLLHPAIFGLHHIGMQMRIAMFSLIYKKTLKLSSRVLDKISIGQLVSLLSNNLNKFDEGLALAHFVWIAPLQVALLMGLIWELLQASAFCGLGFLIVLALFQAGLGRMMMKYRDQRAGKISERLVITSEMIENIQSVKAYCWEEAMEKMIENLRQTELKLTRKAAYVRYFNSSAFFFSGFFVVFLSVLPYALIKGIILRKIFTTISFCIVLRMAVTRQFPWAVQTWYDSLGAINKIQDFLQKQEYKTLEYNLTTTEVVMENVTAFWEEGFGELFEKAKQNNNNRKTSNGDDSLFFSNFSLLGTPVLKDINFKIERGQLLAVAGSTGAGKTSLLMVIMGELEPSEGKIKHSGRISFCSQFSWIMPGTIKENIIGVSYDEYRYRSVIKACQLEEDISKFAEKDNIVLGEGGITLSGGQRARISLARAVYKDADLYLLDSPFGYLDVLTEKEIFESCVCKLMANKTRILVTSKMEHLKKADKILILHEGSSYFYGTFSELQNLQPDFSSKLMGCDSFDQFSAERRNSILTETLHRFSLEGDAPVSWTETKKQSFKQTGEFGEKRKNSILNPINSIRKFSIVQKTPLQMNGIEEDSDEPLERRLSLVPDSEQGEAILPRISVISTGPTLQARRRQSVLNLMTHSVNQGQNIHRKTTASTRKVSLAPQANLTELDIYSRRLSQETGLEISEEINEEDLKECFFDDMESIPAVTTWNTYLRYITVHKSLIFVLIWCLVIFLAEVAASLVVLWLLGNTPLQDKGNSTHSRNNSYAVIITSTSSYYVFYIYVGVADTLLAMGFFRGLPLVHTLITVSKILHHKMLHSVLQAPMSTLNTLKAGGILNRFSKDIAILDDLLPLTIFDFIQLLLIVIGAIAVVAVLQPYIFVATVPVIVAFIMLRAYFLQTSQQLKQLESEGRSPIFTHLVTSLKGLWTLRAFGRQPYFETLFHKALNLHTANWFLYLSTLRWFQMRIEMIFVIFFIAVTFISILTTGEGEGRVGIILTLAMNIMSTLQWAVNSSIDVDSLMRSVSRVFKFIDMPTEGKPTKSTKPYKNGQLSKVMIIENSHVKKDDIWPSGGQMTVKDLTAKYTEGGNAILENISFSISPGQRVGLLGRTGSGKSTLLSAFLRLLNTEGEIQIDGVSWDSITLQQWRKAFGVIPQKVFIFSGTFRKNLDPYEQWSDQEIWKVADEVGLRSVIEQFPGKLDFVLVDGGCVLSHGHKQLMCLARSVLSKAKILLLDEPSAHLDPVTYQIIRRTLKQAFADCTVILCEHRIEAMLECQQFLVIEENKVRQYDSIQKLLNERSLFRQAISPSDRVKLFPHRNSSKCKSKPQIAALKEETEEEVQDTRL
T6 sequence (P13569 whole entry G1349D): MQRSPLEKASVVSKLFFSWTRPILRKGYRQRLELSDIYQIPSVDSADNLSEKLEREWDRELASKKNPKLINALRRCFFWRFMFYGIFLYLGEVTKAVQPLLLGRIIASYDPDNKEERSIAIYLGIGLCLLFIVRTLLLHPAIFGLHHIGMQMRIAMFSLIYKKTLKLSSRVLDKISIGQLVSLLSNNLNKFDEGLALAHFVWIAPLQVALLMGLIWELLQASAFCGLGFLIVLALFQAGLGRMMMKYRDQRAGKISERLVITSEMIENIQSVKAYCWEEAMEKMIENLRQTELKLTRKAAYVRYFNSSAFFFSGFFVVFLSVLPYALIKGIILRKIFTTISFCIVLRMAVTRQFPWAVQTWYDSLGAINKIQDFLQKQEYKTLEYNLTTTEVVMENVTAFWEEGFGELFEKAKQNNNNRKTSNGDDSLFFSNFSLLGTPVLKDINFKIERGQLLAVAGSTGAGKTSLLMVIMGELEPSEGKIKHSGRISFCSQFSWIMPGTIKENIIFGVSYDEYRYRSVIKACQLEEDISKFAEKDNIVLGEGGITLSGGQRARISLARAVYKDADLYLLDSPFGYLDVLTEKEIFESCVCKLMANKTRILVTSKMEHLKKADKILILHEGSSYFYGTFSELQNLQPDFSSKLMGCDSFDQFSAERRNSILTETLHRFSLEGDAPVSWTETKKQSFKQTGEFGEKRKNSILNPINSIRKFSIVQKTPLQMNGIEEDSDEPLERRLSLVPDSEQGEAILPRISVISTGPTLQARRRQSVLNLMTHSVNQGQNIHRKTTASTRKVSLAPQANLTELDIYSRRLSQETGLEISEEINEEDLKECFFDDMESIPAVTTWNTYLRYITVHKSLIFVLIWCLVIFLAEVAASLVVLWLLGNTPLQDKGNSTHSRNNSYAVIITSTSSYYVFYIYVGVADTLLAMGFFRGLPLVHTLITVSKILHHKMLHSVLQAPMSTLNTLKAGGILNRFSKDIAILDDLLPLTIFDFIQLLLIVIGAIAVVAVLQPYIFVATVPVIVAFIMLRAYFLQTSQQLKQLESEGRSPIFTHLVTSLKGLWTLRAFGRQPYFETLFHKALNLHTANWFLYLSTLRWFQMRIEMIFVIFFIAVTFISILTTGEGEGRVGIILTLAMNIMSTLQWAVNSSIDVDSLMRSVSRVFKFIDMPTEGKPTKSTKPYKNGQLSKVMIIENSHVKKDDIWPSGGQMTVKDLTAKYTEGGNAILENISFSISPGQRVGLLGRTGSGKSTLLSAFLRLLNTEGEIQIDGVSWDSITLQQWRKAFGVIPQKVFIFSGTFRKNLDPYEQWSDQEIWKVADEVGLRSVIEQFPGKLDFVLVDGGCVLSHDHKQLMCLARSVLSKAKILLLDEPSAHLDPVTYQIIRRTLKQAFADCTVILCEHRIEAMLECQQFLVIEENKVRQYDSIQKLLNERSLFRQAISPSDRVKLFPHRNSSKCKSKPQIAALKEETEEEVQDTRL
T4 sequence (P13569 whole entry S549N): as the sequence (P13569 whole entry G1349D) above, with S549N, D1349G counted along it
T1 sequence (P13569 whole entry G178R): as the sequence (P13569 whole entry G1349D) above, with G178R, D1349G counted along it
T2 sequence (P13569 whole entry G551D): as the sequence (P13569 whole entry G1349D) above, with G551D, D1349G counted along it
T5 sequence (P13569 whole entry R117H): as the sequence (P13569 whole entry G1349D) above, with R117H, D1349G counted along it

The term EC50 denotes the concentration at which the effect is half-maximal. The low end stands for higher potency in that assay, the high end for lower potency in that assay. For the compound `CN(Cc1ccccc1)S(=O)(=O)c1cc(C(N)=O)c(NC(=O)c2ccn[nH]2)s1` [Compound 73, N-(5-(N-benzyl-N-methylsulfamoyl)-3-carbamoylthiophen-2-yl)-1H-pyrazole-3-carboxamide], the 50% effective concentration (EC50) at CFTR-G178R came to 44.7 nM; on CFTR G551D mutant it was 232 nM; at CFTR ΔF508 mutant [1] it was 16.5 nM; on CFTR ΔF508 mutant [2], 25.1 nM; at CFTR-S549N, 162 nM; at CFTR-R117H, 168 nM. Further, the EC50 is 15.7 nM at CFTR ΔF508 mutant [3] and 41.6 nM on CFTR-G1349D.
As to `NC(=O)c1cc(S(=O)(=O)c2ccccc2)sc1NC(=O)c1cc[nH]n1` [Compound 83, N-(3-carbamoyl-5-(phenylsulfonyl)thiophen-2-yl)-1H-pyrazole-3-carboxamide], the half-maximal effective concentration (EC50) stood at 71.3 nM at CFTR-G178R; 339 nM at CFTR G551D mutant; 30.8 nM at CFTR ΔF508 mutant [1]; 42.8 nM at CFTR ΔF508 mutant [2]; 353 nM on CFTR-S549N; 222 nM on CFTR-R117H. Besides, the EC50 stood at 12.1 nM on CFTR ΔF508 mutant [3] and 152 nM on CFTR-G1349D.
